Molecules are shown by their SMILES.

The test system of one assay is kidney of rats. The assay can be described thus: Renal pathology in rats co-administered with quercetin-3′-O-phosphate and tacrolimus. The class given is in vivo, rat. Here is the method:
Tissue is removed from the kidney of rats treated with tacrolimus (Prograf®) at 0.5 mg/kg and inert vehicle, and from rats treated with tacrolimus (Prograf®) at 0.5 mg/kg and quercetin-3′-O-phosphate (Q-Phosphate) at 11 mg/kg, 28 mg/kg, and at 114 mg/kg for 25 days. […] The tissue from rats treated with Q-Phosphate and tacrolimus show no vacuoles.

For the next assay, the system named is Dopamine D47. Briefly: Secondary toxicity screen (MDS Pharma Services), radioligand binding. The conditions noted are these: 10 μM. Here is the method:
(§1) A secondary pharmacological screening of molecules of interest at a fixed concentration is often practiced in the pharmaceutical industry in order to evaluate the effect of the compound on secondary targets that could result in untoward toxicity in-vivo. These secondary screens are well known in the art and can be carried out by labs which specialize in these tests such as MDS-Panlabs and CEREP. A secondary toxicity screen is performed with Quercetin-3′-O-phosphate at a concentration of 10 μM against 122 targets in enzyme, radioligand binding, and cellular assays by MDS Pharma Services by methods well known in the art. Inhibition is found in only the following targets (percent inhibition at 10 μM in parentheses): ATPase, Na+/K+, Heart, Pig (65%), Nitric Oxide Synthase, Endothelial (eNOS) (72%), Protein Tyrosine Kinase, FGFR2 (94%), Protein Tyrosine Kinase, FGFR1(96%), Protein Tyrosine Kinase, Insulin Receptor (91%), Protein Tyrosine Kinase, (82%), Protein Tyrosine Kinase, ZA70 (ZAP-70) (74%), UDP Glucuronosyltransferase, UGT1A1 (52%), Adenosine A1 (50%), Adrenergic α2A (57%), Dopamine D47 (51%), Peripheral Benzodiazepine Receptor (PBR) (53%), Transporter, Monoamine rabbit (68%), Serotonin (5-Hydroxytryptamine) 5-HT1A (62%).

Assay [1] relates to Transporter, Monoamine rabbit. The description is as above. The conditions noted are these: 10 μM. Here is the method: as §1
In assay [2] the test system is Peripheral Benzodiazepine Receptor (PBR). The description is as above. The conditions noted are these: 10 μM. As to the method: as §1

Turning to `O=c1c(O)c(-c2ccc(O)c(OP(=O)(O)O)c2)oc2cc(O)cc(O)c12` [Quercetin-3′-O-phosphate], in the assay with kidney of rats (co-administered with tacrolimus), the “protective effect with respect to the kidneys” value is listed as “significant protective effect”. For the same molecule, the “vacuolation of kidney tissue” value with kidney of rats (tacrolimus 0.5 mg/kg and Q-Phosphate at 11, 28 and 114 mg/kg, 25 days) is reported as “no vacuoles”. The percent inhibition in the assay on Dopamine D47 amounted to 51%; in assay [1] it was 68%; in assay [2], 53%.
